Experimental findings from patent US7094794B2, “Substituted thiazole-benzoisothiazole dioxide derivatives, process for their preparation and their use” (Sanofi-Aventis Deutschland GmbH, priority 2003, dated 2006) are described below.

This experiment deals with T1, recombinant hPTP1B (human PTP1B, 1-299 aa) (Homo sapiens, UniProt P18031).
T1 construct: without the carboxy-terminal hydrophobic region (corresponding to 1-299 aa); made in house; host or cells: Sf9 insect cells (baculovirus, Bac-to-Bac, pFASTBAC)
T1 sequence (P18031 1-299): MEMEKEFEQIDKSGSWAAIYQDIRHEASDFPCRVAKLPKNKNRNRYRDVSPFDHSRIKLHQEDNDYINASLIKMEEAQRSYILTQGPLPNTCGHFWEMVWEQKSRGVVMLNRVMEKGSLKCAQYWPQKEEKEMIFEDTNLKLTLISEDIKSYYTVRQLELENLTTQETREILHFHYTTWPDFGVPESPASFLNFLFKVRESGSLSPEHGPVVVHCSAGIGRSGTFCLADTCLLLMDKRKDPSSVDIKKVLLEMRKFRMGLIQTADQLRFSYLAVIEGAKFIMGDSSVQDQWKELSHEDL
The experiment in a line: Enzymatic test systems for detecting inhibition of a phosphatase (in vitro assay). Type of experiment: biochemical. The note with it: Table 2 does not say which substrate (phosphopeptide or p-nitrophenyl phosphate). The protocol: Enzymatic Test Systems for Detecting Inhibition of a Phosphatase
The compounds of the formula I were tested for their phosphatase-inhibiting effect in an in vitro assay. The enzyme preparation and the performance of the assay was carried out as follows.
• Sf9 cells (=Spodoptera frugiperda cell type; obtainable from invitrogen) are cultured in Grace's supplemented medium (Gibco-BRL) with 10% heat-inactivated fetal calf serum (Gibco-BRL) in spinner flasks at 28° C. in accordance with the protocol of Summers and Smith (A Manual for Methods for Baculoviruns Vectors and Insect Culture Procedures [Bulletin No. 15555]. Texas A & M University, Texas Agricultural Experiment Station, College Station, Tex., 1987). • Construction of recombinant Baculovirus transfer vectors: cDNA coding for the regulatory and catalytic domains of human PTP1B, but without the carboxy-terminal hydrophobic region (corresponding to 1-299 aa) was obtained by polymerase chain reaction via primers with attached cloning sites and suitable cDNA templates (obtainable for example from invitrogen) and then cloned into baculovirus expression vectors (Amersham Pharmacia Biotech.). The recombinant baculoviruses were prepared with the aid of the Bac-to-Bac baculovirus expression system (obtainable from Gibco-BRL). The gene was cloned into the pFASTBAC donor plasmid (obtainable from Life Technologies). The resulting plasmid was transformed into competent DH10BAC Escherichia coli cells (obtainable from Life Technologies). After transposition and antibiotic selection, the recombinant plasmid DNA was isolated from selected E. coli colonies and then used for the transfection of Sf9 insect cells. The virus particle in the supernatant medium was amplified three times up to a viral stock volume of 500 ml. B) Production of Recombinant Protein: • Baculovirus infection of a 500 ml spinner culture of Sf9 cells was essentially carried out as described by Summers and Smith (see above). Sf9 cells at a density of 1–3×10^6 cells/ml were pelleted by centrifugation at 300 g for 5 min, the supernatant was removed, and the cells were resuspended in a density of 1×10^7 cells/ml in a suitable recombinant viral stock (MOI 10). After careful shaking at room temperature for 1.5 h, fresh medium was added in order to achieve a cell density of 1×10^6 cells/ml. The cells were then cultured in the suspension at 28° C. for suitable periods after postinfection. C) Cellular Fractionation and Complete Cell Extracts of Infected Sf9 Cells: • After the postinfection, aliquots were subjected to an analysis of protein expression by SDS-PAGE and Western blot analysis. The cellular fractionation was carried out as described (Cromlish, W. and Kennedy, B. Biochem. Pharmacol. 52: 1777–1785, 1996). Complete cell extracts were obtained from 1 ml aliquots of the infected Sf9 cells after certain times postinfection. The pelleted cells (300×g, 5 min) were washed once in phosphate-buffered saline (4° C.), resuspended in 50 μl of water and disrupted by repeated freezing/thawing. Protein concentrations were determined with the aid of the Bradford method and bovine serum albumin as standard. Assay Procedure: A) Dephosphorylation of a Phosphopeptide: • This assay is based on the release of phosphate from a consensus substrate peptide which is detected in the nanomolar concentration range by the malachite green/ammonium molybdate method (Lanzetta, P. A., Alvarez, L. J., Reinach, P. S., Candia, O. A. Anal Biochem. 100: 95–97, 1979) adapted for the microtiter plate format. The dodecatrisphosphopeptide TRDIYETDYYRK (Biotrend, Cologne) corresponds to amino acids 1142–1153 of the catalytic domain of the insulin receptor and is (auto)phosphorylated on tyrosine residues 1146, 1150 and 1151. […]

Consider `Cc1sc(Nc2ccc3c(c2)CS(=O)(=O)N3)nc1-c1ccccc1` [Example 5], for which the IC50 (as a rule, the concentration needed to halve the response being measured) was 15.9 µM. As to `O=S1(=O)Cc2cc(Nc3nc(-c4ccc(N5CCCC5)cc4)cs3)ccc2N1` [Example 8], the IC50 came out at 5.9 µM. In the case of `O=S1(=O)Cc2cc(Nc3nc(-c4ccc(Br)cc4)cs3)ccc2N1` [Example 4], the IC50 came out at 6.2 µM. For the molecule `COc1ccc(-c2csc(Nc3ccc4c(c3)CS(=O)(=O)N4)n2)c(OC)c1` [Example 6], the IC50 was determined as 48 µM.

For the molecule `O=S1(=O)Cc2cc(Nc3nc(-c4cccc(Br)c4)cs3)ccc2N1` [Example 7], the half-inhibitory concentration (IC50) is 7.9 µM.

For `O=S1(=O)Cc2cc(Nc3nc(-c4ccc(Cl)c(Cl)c4)cs3)ccc2N1` [Example 2], the IC50 stood at 27.8 µM. On to `COc1cccc(-c2csc(Nc3ccc4c(c3)CS(=O)(=O)N4)n2)c1` [Example 9], for which the IC50 was found to be 6.3 µM.

Regarding `CC(C)(C)c1cc(-c2csc(Nc3ccc4c(c3)CS(=O)(=O)N4)n2)cc(C(C)(C)C)c1O` [Example 14], the IC50 is 2.77 µM. Regarding `O=S1(=O)Cc2cc(Nc3nc(-c4ccc5ccccc5c4)cs3)ccc2N1` [Example 3], the IC50 was found to be 8.8 µM.

Turning to `Cc1c(-c2csc(Nc3ccc4c(c3)CS(=O)(=O)N4)n2)sc2ccc(Cl)cc12` [Example 10], the IC50 was found to be 5.3 µM. `O=S1(=O)Cc2cc(Nc3nc(-c4ccncc4)cs3)ccc2N1` [Example 13]: the IC50 is over 80 µM. For the molecule `Cc1c(-c2csc(Nc3ccc4c(c3)CS(=O)(=O)N4)n2)sc2ccccc12` [Example 11], the IC50 was 6.2 µM.
